For three compounds, IC50 and inhibition results are on record in patent EP4692094A1 (Beijing Konruns Pharmaceutical Co., Ltd., priority 2023, dated 2024).

As usually defined, the pIC50 is the negative decadic logarithm of the IC50, by convention in mol/L. High values mean a low IC50, low ones a high IC50. A word on the inhibition: it is the relative decrease from the control value, in per cent.

pIC50: −log10 of the molar value.

One data set deals with T1, KAT8 (Homo sapiens, UniProt Q9H7Z6).
T1 construct: purchased active motife (Active Motif) 81225
T1 sequence (Q9H7Z6 1-458): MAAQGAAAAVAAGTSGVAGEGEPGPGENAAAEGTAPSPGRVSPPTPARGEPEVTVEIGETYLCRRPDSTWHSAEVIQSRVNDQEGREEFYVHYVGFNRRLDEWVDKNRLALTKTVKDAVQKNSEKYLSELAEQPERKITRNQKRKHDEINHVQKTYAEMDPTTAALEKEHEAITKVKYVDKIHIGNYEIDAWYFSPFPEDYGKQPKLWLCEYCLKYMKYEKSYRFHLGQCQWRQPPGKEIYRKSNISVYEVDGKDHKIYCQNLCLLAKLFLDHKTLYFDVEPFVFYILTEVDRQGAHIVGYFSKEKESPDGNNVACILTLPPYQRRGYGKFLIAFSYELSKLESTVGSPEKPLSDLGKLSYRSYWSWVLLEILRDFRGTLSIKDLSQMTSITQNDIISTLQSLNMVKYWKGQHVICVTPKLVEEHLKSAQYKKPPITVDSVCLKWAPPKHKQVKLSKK
In words: Enzymatic activity assay for KAT8 acetyltransferase (TR-FRET). The class given is biochemical. Conditions: KAT8 10 nM, AcCOA 2 µM. The procedure:
The acetylation effects of KAT6B on histone substrate H3, as well as KAT5, KAT7, and KAT8 on histone substrate H4, were determined using the TR-FRET (time-resolved fluorescence resonance energy transfer) method. The determination was performed according to experimental procedures similar to those in "Pharmacological Experiment I": 1.2 Preparation of compounds: The compounds prepared in the examples were each dissolved in dimethylsulfoxide to give solutions at a concentration of 10 mmol/L. • 1) The compounds in the examples were each diluted from 10 mmol/L stock solution to 0.2 mmol/L, i.e., 1 µL of the compound was added to 49 µL of DMSO, and 3-fold dilution was performed to give 10 concentrations. • 2) 50 nL of the test compounds were transferred to 384 reaction plates using Echo, two replicates for each compound, and the plates were centrifuged at a rotation speed of 1000 rpm for 1 min, the final concentration of dimethylsulfoxide (DMSO) being 0.5%.
For KAT8: • 3) 2.5 µL of the KAT8 enzyme solution at a final concentration of 10 nM was added to the 384 reaction plates in step 2), and the plates were centrifuged at 1000 rpm for 1 min and incubated at 25 °C for 10 min. • 4) 2.5 µL of […] at a final concentration of 300 nM and an AcCOA (acetyl-CoA) reaction solution at a final concentration of 2 µM were added to the 384 reaction plates in step 3), and the plates were centrifuged at a rotation speed of 1000 rpm for 1 min and incubated at 25 °C for 90 min. • 5) 5 µL of Eu-Ab& Ulight-SA detection solution was separately added to the 384 reaction plates in step 4) of the 4 groups described above, and the plates were centrifuged at 1000 rpm for 1 min and incubated at 25 °C for 60 min. • 6) The HTRF […] signals were read using a BMG high-throughput drug-screening multi-mode microplate reader.
The acetylation levels of the histones in the groups were analyzed by the GraphPad Prism 8 software. […]

The target of a further data set is T2, CYP2C8 (Homo sapiens, UniProt P10632).
T2 construct: from tissue; host or cells: human liver microsomes
T2 sequence (P10632 1-490): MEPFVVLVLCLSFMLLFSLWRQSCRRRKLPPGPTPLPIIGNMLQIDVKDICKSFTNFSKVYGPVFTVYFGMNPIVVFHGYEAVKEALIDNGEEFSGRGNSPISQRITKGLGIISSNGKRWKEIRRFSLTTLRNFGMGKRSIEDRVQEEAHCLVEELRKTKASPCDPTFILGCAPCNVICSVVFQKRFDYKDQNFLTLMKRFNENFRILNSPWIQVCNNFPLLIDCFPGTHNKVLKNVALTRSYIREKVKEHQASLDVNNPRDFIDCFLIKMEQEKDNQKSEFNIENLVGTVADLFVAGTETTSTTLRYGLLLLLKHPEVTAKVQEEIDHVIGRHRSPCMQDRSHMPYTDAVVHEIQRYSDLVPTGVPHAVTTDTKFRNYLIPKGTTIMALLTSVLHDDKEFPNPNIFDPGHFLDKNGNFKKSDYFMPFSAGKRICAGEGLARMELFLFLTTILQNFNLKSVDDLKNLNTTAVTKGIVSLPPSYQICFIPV
In words: Inhibitory effect on P450 enzymes in vitro (human liver microsomes), CYP2C8. It is filed as in vitro ADME. Conditions: probe paclitaxel, final concentration 10 µM, substrate paclitaxel, read-out: % inhibition rate CYP2C8 (paclitaxel). As for the experimental part: 1.1 Preparation of compounds: The compounds prepared in the examples were each dissolved in dimethylsulfoxide to give solutions at a concentration of 2 mmol/L.
1.2 Test methods: • 1) Incubation system: human liver microsomes, a MgCl2 solution, a phosphate buffer solution, and a substrate solution were each added a 96-well deep-well plate and mixed homogenously. In the final incubation system, the concentration of the human liver microsomes was 0.2 mg/mL, and the final concentrations of the MgCl2 solution and the phosphate buffer solution were 5 mM and 100 mM, respectively. • 2) 1 µL of the substrate solution was added to the incubation system, and the final concentrations of CYP1A2 phenacetin, 2C8 paclitaxel […], 2C19 mephenytoin, 2D6 midazolam, and 3A midazolam substrates were 40 µM (phenacetin), 5 µM (paclitaxel), 50 µM (mephenytoin), 10 µM (mephenytoin), 5 µM (midazolam), and 50 µM […], respectively. • 3) 1 µL of the example compound or vehicle (DMSO) was added to the incubation system, and the incubation system was pre-warmed for 5 min in a 37 °C water bath before starting the reaction with 20 µL of 10 mM NADPH solution.
1.3 Sample treatment: Within the designated time (20 min for phenacetin, 10 min for paclitaxel, 20 min for mephenytoin, 20 min for dextromethorphan, 5 min for midazolam, and 10 min for testosterone), 400 µL of methanol containing the internal standard was added to terminate the reaction, and the mixture was vortexed and mixed homogeneously. Then, the deep-well plate was centrifuged at 3220 g and 4 °C for 40 min. 100 µL of the supernatant was transferred into a new plate, and 150 µL of purified water was added. The mixture was mixed homogenously for LC-MS/MS analysis. Table 11. Inhibitory effects of some compounds in the examples on CYP enzymes

As for `COc1cc2c(cc1S(=O)(=O)Nc1noc3cc(Cn4cccn4)nc(OC)c13)OCC2` [Example 59, N-(6-((1H-Pyrazol-1-yl)methyl)-4-methoxyisoxazolo[4,5-c]pyridin-3-yl)-5-methoxy-2,3-dihydrobenzofuran-6-sulfonamide], on KAT8, the pIC50 was 6.49. Besides, the inhibition at 10 min, 10 µM on CYP2C8 is 2.08%.

The compound `COc1ccc2ccoc2c1S(=O)(=O)Nc1noc2cc(Cn3cccn3)nc(OC)c12` [Example 10, N-(6-((1H-Pyrazol-1-yl)methyl)-4-methoxyisoxazolo[4,5-c]pyridin-3-yl)-6-methoxybenzofuran-7-sulfonamide] gave a pIC50 against KAT8 of 7.10. Moreover, the inhibition at 10 min, 10 µM at CYP2C8 amounted to 3.71%.

Consider `COc1cc2c(cc1S(=O)(=O)Nc1noc3cc(Cn4cccn4)nc(OC)c13)CCCC2` [Example 2, N-(6-((1H-Pyrazol-1-yl)methyl)-4-methoxyisoxazolo[4,5-c]pyridin-3-yl)-3-methoxy-5,6,7,8-tetrahydronaphthalene-2-sulfonamide], for which the pIC50 against KAT8 is 6.93. Also, on CYP2C8, the inhibition at 10 min, 10 µM worked out at 16.4%.
